Measured values from patent US12441726B2, “Compounds and uses thereof” (Foghorn Therapeutics Inc., priority 2020, dated 2025).

Tests used:
BRM = BRM (Homo sapiens, UniProt P51531); assay: ATPase catalytic activity assay (ADP-Glo), BRM; details: 30 nM BRM, 400 μM ATP; for IC50: BRM ATPase: IC50 (uM)
BRG-1 = BRG-1 (Homo sapiens, UniProt P51532); assay: ATPase catalytic activity assay (ADP-Glo), BRG-1; details: for Emax: 1 h, read-out: BRG1 Max % Inhibition, ADP-Glo, 30 nM BRG-1, 400 μM ATP
Sequence of BRG-1 (P51532 whole entry): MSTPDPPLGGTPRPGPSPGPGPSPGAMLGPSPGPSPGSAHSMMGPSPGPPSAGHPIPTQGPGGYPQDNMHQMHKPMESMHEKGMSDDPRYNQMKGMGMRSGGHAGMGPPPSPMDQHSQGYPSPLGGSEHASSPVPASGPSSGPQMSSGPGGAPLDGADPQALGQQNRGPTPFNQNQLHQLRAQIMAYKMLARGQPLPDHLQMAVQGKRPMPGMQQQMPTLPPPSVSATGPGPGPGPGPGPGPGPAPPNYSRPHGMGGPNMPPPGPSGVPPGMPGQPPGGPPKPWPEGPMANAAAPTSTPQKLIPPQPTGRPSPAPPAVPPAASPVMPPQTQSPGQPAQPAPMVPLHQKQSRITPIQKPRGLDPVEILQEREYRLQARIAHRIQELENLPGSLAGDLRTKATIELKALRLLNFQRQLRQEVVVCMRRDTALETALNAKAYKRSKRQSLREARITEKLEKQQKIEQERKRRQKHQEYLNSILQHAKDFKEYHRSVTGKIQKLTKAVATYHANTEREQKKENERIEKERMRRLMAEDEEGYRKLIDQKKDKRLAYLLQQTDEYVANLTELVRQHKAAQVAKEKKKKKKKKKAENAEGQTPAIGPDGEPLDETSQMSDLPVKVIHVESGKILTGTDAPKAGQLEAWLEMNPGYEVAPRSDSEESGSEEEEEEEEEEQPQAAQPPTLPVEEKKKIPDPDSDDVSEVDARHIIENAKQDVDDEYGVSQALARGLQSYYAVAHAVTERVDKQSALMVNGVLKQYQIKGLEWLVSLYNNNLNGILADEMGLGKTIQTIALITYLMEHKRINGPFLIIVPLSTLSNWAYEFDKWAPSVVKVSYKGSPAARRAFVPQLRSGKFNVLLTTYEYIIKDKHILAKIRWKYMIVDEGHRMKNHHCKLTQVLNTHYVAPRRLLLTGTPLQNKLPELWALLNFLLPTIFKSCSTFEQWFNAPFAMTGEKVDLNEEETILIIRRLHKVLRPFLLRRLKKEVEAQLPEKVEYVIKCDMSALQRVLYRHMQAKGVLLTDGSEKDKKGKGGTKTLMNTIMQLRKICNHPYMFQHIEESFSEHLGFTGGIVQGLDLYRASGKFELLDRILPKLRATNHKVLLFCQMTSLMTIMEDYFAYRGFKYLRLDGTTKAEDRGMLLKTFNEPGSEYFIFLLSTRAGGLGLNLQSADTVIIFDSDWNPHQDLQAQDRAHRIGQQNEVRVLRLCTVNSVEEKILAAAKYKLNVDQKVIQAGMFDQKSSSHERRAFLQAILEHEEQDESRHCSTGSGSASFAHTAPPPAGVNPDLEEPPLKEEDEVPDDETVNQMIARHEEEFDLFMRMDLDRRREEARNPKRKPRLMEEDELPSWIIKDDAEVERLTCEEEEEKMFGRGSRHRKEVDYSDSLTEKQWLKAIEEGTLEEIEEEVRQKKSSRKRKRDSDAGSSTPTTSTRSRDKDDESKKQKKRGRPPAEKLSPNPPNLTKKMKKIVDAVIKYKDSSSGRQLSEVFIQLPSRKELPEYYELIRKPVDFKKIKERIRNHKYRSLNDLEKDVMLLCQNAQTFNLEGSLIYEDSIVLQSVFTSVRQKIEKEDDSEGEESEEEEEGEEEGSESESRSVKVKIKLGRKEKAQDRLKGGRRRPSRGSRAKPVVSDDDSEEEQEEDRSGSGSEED

Sequence of BRM (P51531 whole entry): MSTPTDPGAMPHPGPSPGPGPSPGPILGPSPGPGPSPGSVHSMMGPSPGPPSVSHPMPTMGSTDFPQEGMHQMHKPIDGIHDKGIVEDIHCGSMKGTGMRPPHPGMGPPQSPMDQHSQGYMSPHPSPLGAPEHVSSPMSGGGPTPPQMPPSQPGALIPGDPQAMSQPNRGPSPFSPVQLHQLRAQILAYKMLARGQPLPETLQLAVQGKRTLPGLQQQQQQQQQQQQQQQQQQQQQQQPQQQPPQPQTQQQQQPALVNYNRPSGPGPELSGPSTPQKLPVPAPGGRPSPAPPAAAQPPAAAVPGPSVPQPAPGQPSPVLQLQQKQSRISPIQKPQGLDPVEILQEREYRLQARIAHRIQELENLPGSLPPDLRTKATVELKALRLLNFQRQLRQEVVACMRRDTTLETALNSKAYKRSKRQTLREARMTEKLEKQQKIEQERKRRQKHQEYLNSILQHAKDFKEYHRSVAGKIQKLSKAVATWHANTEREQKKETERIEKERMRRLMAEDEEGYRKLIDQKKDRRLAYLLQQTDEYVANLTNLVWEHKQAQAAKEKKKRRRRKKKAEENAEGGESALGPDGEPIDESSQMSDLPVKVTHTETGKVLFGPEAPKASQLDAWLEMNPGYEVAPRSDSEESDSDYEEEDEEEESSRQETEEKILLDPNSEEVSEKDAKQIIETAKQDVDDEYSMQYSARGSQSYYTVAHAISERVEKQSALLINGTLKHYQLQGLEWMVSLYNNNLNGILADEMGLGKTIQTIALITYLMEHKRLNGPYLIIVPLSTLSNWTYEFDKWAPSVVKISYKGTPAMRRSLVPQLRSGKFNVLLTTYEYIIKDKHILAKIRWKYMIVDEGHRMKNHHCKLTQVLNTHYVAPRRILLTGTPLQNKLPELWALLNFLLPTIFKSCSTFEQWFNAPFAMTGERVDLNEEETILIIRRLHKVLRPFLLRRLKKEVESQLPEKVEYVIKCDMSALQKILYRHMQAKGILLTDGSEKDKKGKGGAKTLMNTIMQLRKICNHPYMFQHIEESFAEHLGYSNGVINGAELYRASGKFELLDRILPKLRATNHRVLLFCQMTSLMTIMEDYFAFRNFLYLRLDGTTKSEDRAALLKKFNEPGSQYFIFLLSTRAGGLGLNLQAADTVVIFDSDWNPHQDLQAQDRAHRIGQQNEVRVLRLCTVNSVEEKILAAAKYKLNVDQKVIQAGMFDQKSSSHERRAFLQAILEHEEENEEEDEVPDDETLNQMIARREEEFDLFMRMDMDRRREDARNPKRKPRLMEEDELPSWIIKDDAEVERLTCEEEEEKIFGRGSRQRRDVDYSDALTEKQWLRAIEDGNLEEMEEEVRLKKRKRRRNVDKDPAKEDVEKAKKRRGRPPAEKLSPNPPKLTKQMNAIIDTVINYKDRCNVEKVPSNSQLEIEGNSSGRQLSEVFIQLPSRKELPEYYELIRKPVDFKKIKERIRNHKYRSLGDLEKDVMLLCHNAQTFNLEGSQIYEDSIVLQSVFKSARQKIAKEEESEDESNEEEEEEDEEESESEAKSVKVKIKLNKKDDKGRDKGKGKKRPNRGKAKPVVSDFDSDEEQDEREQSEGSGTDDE

| SMILES | BRM Max % Inhibition (BRM) | IC50 (BRM) | IC50 (BRG-1) | Emax (BRG-1) |
| --- | --- | --- | --- | --- |
| C[C@@]1(C#N)COCc2ccc(C(=O)NCc3cc4cc(-c5ccnc(C6CC6)c5F)cnc4cn3)cc21 [Compound 280] | 96% | 0.1 to 0.5 µM | 100 to 500 nM | 82% |
| CN(C)c1cccn(-c2ccc3cnc(CNC(=O)c4ccc5c(c4)[C@](C)(C#N)COC5)cc3n2)c1=O [Compound 281] | 92% | 0.1 to 0.5 µM | > 1000 nM | 48% |
| C[C@@]1(C#N)COCc2ccc(C(=O)NCc3cc4nc(-n5cccc(C6CC6)c5=O)ccc4cn3)cc21 [Compound 282] | 87% | 0.1 to 0.5 µM | > 1000 nM | 45% |
| C[C@@]1(C#N)COCc2ccc(C(=O)NCc3cc4nc(-n5cccc(N6CCC6)c5=O)ccc4cn3)cc21 [Compound 283] | 96% | 0.1 to 0.5 µM | 500 to 1000 nM | 63% |
| C[C@@]1(C#N)COCc2ccc(C(=O)NCc3cc4nc(-c5ccnc(N6CC7CC(C6)O7)n5)ccc4cn3)cc21 [Compound 284] | 99% | < 0.1 µM | 100 to 500 nM | 93% |
| C[C@@]1(C#N)COCc2ccc(C(=O)NCc3cc4nc(-c5ccnc(N6CC7CC6C7)n5)ccc4cn3)cc21 [Compound 285] | 98% | < 0.1 µM | 100 to 500 nM | 92% |
| C[C@@]1(C#N)COCc2ccc(C(=O)NCc3cc4c(cn3)CCN(c3ccccn3)C4)cc21 [Compound 286] | 85% | 0.1 to 0.5 µM | > 1000 nM | 43% |
| CN1CCC(C(=O)N2CCN(c3cccc(-c4ccc5cnc(CNC(=O)c6ccc7c(c6)[C@](C)(C#N)COC7)cc5n4)n3)CC2)CC1 [Compound 287] | 99% | < 0.1 µM | 500 to 1000 nM | 99% |
| COCCC(=O)N1CCN(c2cccc(-c3ccc4cnc(CNC(=O)c5ccc6c(c5)[C@](C)(C#N)COC6)cc4n3)n2)CC1 [Compound 288] | 101% | < 0.1 µM | 100 to 500 nM | 98% |
| Cn1cc(-c2nc3cc(CNC(=O)c4ccc5c(c4)[C@](C)(C#N)COC5)ncc3s2)cn1 [Compound 289] | 90% | 0.1 to 0.5 µM | > 1000 nM | 41% |
| C[C@@]1(F)COCc2ncc(C(=O)NCc3cc4nc(-c5ccccc5)sc4cn3)cc21 [Compound 290] | 94% | 0.1 to 0.5 µM | 500 to 1000 nM | 53% |
| C[C@@]1(C#N)COCc2ccc(C(=O)NCc3cc4nc(-c5cncc(N6CC[C@@H](F)C6)n5)ccc4cn3)cc21 [Compound 291] | 100% | < 0.1 µM | < 100 nM | 97% |
| C[C@@]1(F)COCc2ccc(C(=O)NCc3cc4nc(-c5ccnc(N6CCN(C7COC7)CC6)n5)ccc4cn3)cc21 [Compound 292] | 99% | < 0.1 µM | 100 to 500 nM | 94% |
| Cn1nccc(-c2ccc3cnc(CNC(=O)c4ccc5c(c4)[C@](C)(F)COC5)cc3n2)c1=O [Compound 293] | 88% | 0.1 to 0.5 µM | > 1000 nM | 33% |
| C[C@@]1(C#N)COCc2ccc(C(=O)NCc3cc4cc(-c5ccnc(N6CCC6)c5F)cnc4cn3)cc21 [Compound 294] | 100% | < 0.1 µM | 100 to 500 nM | 86% |
| C[C@@]1(F)COCc2ccc(C(=O)NCc3cc4nc(-c5cccc(N6CCC6)n5)ccc4cn3)cc21 [Compound 295] | 100% | < 0.1 µM | 100 to 500 nM | 93% |

| SMILES | BRM Max % Inhibition (BRM) | IC50 (BRM) | IC50 (BRG-1) | Emax (BRG-1) |
| --- | --- | --- | --- | --- |
| C[C@@]1(F)COCc2ncc(C(=O)NCc3cc4nc(-c5ccnc(N6CCC6)c5F)ccc4cn3)cc21 [Compound 296] | 100% | < 0.1 µM | 100 to 500 nM | 88% |
| COc1cnn(C)c1-c1ccc2cnc(CNC(=O)c3ccc4c(c3)[C@](C)(C#N)COC4)cc2n1 [Compound 297] | 96% | 0.1 to 0.5 µM | 500 to 1000 nM | 66% |
| C[C@@]1(C#N)COCc2ccc(C(=O)NCc3cc4c(cn3)CCN(c3cncc(N5CCC5)n3)C4)cc21 [Compound 298] | 99% | < 0.1 µM | 100 to 500 nM | 82% |
| CC(F)(F)c1cncc(-c2ccc3cnc(CNC(=O)c4ccc5c(c4)[C@](C)(C#N)COC5)cc3n2)n1 [Compound 299] | 99% | < 0.1 µM | 500 to 1000 nM | 78% |
| C[C@@]1(F)COCc2ccc(C(=O)NCc3cc4nc(-c5ccccc5)sc4cn3)cc21 [Compound 300] | 99% | 0.1 to 0.5 µM | 500 to 1000 nM | 63% |
| C[C@@]1(F)COCc2ncc(C(=O)NCc3cc4nc(-c5cncc(C6CC6)n5)ccc4cn3)cc21 [Compound 301] | 96% | < 0.1 µM | 100 to 500 nM | 86% |
| C[C@@]1(F)COCc2ccc(C(=O)NCc3cc4nc(-c5cccc(C6(O)CCOCC6)n5)ccc4cn3)cc21 [Compound 302] | 93% | 0.1 to 0.5 µM | 500 to 1000 nM | 58% |
| C[C@@]1(C#N)COCc2ccc(C(=O)NCc3cc4nc(N5Cc6ccccc6C5=O)ccc4cn3)cc21 [Compound 303] | 96% | 0.1 to 0.5 µM | 100 to 500 nM | 87% |
| C[C@@]1(C#N)COCc2ccc(C(=O)NCc3cc4c(cn3)CCN(c3cccc(C(F)F)n3)C4)cc21 [Compound 304] | 86% | 0.1 to 0.5 µM | > 1000 nM | 38% |
| Cn1cc(-c2ccc3cnc(CNC(=O)c4ccc5c(c4)[C@](C)(F)COC5)cc3n2)c(C#N)n1 [Compound 305] | 87% | 0.1 to 0.5 µM | > 1000 nM | 40% |
| C[C@@]1(C#N)COCc2ccc(C(=O)NCc3cc4nc(-c5ccnc(N6CC[C@@H](F)C6)n5)ccc4cn3)cc21 [Compound 306] | 99% | < 0.1 µM | 100 to 500 nM | 94% |
| C[C@@]1(F)COCc2ccc(C(=O)NCc3cc4nc(-c5ccnc(N6CC[C@H]7COC[C@@H]7C6)n5)ccc4cn3)cc21 [Compound 307] | 98% | < 0.1 µM | 100 to 500 nM | 97% |
| C[C@@]1(F)COCc2ccc(C(=O)NCc3cc4nc(-c5ccnc(N6CC[C@@H]7COC[C@H]7C6)n5)ccc4cn3)cc21 [Compound 308] | 99% | < 0.1 µM | < 100 nM | 96% |
| C[C@@]1(C#N)COCc2ccc(C(=O)NCc3cc4nc(-c5ccn6ncc(C(F)F)c6n5)ccc4cn3)cc21 [Compound 309] | 97% | < 0.1 µM | 100 to 500 nM | 82% |
| C[C@@]1(C#N)COCc2ccc(C(=O)NCc3cc4nc(-c5ccnc(N6C[C@H]7C[C@@H]6CO7)n5)ccc4cn3)cc21 [Compound 310] | 97% | < 0.1 µM | 100 to 500 nM | 84% |
